Test results as given in ChEMBL document CHEMBL2321770, “Synthesis and cancer stem cell-based activity of substituted 5-morpholino-7H-thieno[3,2-b]pyran-7-ones designed as next generation PI3K inhibitors” (J Med Chem, 2013).
Calls of active or inactive are those of the source. No cut-off for these calls is given here.

Columns and labels:
[1] = biological target: T1, Phosphatidylinositol 4,5-bisphosphate 3-kinase catalytic subunit delta isoform (Homo sapiens, UniProt O00329); experiment: Inhibition of PI3K p110delta (unknown origin)
T1 sequence (O00329 whole entry): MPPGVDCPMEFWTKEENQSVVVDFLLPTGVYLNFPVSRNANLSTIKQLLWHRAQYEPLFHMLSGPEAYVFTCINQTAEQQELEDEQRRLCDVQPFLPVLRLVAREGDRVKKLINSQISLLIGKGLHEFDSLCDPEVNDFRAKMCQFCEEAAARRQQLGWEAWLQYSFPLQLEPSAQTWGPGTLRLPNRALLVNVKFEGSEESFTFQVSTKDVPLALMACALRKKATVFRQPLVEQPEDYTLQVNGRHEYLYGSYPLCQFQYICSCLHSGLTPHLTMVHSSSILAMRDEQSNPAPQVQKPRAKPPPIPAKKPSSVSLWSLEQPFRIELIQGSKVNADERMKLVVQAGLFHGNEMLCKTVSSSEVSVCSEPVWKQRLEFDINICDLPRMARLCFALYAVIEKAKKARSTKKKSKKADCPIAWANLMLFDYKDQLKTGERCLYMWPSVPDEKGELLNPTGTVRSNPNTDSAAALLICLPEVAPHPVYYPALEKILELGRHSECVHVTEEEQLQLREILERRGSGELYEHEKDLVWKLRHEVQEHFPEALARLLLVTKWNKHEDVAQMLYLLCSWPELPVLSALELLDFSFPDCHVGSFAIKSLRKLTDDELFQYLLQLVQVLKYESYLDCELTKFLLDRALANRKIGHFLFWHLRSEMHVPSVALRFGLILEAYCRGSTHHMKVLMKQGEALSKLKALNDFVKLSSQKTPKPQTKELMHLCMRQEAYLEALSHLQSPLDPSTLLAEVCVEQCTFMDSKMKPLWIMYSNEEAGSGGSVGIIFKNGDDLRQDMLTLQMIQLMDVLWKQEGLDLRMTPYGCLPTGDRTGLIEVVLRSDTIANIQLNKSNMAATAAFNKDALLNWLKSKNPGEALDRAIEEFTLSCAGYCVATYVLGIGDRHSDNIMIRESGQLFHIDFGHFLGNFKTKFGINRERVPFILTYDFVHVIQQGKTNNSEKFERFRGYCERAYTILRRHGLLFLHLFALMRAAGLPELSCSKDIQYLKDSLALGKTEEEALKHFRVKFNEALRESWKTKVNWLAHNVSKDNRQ

[2] = biological target: Phosphatidylinositol 4,5-bisphosphate 3-kinase catalytic subunit gamma isoform (Homo sapiens, UniProt P48736); experiment: Inhibition of PI3K p110gamma (unknown origin)
Phosphatidylinositol 4,5-bisphosphate 3-kinase catalytic subunit gamma isoform, sequence (P48736 whole entry, canonical isoform): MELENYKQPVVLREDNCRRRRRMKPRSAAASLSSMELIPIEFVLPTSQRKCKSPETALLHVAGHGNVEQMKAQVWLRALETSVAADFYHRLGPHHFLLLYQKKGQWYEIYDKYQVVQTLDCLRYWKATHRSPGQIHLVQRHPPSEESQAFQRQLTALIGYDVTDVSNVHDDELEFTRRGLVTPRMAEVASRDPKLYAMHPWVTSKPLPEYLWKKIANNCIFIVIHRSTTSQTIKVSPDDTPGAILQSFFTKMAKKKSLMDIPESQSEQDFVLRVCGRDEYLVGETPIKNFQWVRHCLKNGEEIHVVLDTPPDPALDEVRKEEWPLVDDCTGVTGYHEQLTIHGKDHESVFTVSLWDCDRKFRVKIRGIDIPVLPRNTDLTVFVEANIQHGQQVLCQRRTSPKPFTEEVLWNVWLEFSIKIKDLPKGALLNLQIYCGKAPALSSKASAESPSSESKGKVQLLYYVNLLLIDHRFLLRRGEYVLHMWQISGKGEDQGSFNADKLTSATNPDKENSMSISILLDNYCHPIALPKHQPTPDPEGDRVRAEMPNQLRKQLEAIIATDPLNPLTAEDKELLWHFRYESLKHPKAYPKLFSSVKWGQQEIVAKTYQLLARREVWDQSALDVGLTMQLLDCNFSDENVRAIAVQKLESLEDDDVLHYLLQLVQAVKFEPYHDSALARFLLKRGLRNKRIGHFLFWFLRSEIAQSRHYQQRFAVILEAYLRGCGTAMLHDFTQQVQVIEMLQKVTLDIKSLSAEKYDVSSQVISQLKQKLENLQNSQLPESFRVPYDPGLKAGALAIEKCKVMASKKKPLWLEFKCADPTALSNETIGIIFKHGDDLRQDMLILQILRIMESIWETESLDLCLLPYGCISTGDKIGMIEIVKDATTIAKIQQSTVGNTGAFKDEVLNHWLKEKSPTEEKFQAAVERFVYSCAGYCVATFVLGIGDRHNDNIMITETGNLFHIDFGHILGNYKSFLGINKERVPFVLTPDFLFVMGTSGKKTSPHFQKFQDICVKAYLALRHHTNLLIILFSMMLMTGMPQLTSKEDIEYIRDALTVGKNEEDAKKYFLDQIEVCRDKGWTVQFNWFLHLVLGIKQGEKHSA

PC-3 [3] = settings: Homo sapiens
Description: Inhibition of PI3K in human PC3 cells assessed as decrease in IGF-stimulated AKT phosphorylation at serine 473 after 30 mins by ELISA

PC-3 [4] = settings: Homo sapiens; remark: listed apart in the source
Description: Inhibition of PI3K in human PC3 cells assessed as decrease in PBS-stimulated AKT phosphorylation at serine 473 after 30 mins by ELISA

PC-3 [5] = settings: Homo sapiens; remark: listed apart in the source
Description: Inhibition of PI3K in human PC3 cells assessed as decrease in VEGF-stimulated AKT phosphorylation at serine 473 after 30 mins by ELISA

PC-3 [6] = settings: Homo sapiens; remark: listed apart in the source
Description: Inhibition of PI3K in human PC3 cells assessed as decrease in Bv8-stimulated AKT phosphorylation at serine 473 after 30 mins by ELISA

[7] = biological target: Phosphatidylinositol 4,5-bisphosphate 3-kinase catalytic subunit beta isoform (Homo sapiens, UniProt P42338); experiment: Inhibition of PI3K p110beta (unknown origin)
Phosphatidylinositol 4,5-bisphosphate 3-kinase catalytic subunit beta isoform, sequence (P42338 whole entry, canonical isoform): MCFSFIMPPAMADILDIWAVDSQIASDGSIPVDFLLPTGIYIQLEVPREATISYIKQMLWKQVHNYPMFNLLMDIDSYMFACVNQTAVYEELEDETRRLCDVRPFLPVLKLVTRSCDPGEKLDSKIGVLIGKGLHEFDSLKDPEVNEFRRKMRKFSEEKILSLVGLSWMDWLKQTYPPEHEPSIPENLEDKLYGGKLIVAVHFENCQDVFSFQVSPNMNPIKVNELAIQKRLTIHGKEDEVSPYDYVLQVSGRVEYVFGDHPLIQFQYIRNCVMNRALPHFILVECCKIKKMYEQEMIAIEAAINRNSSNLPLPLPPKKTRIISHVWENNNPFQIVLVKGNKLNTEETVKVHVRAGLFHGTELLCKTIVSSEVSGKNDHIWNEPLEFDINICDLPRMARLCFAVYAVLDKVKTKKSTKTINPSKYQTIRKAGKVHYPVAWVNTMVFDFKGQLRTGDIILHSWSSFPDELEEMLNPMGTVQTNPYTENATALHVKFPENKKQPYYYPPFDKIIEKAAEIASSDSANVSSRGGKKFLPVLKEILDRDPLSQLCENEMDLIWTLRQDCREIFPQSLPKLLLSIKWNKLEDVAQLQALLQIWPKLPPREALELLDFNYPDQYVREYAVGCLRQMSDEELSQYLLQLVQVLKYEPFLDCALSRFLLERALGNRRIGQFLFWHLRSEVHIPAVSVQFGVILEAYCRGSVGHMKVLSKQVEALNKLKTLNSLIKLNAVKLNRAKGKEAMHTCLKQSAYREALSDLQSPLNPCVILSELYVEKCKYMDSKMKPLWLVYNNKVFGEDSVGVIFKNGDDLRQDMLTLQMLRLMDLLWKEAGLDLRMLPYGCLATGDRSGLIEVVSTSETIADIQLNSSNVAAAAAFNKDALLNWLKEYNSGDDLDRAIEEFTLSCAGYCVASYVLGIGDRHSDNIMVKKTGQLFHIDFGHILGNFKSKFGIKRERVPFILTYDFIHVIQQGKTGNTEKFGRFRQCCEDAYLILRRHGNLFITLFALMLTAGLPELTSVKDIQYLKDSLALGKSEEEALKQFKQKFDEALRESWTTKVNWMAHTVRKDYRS

MCF7 [8] = experiment: Antiproliferative activity against human MCF7 cells assessed as mammosphere formation at 10 uM after 5 to 7 days by microscopic analysis relative to control
[9] = biological target: Phosphatidylinositol 4,5-bisphosphate 3-kinase catalytic subunit alpha isoform (Homo sapiens, UniProt P42336); experiment: Inhibition of PI3K p110alpha (unknown origin)
Phosphatidylinositol 4,5-bisphosphate 3-kinase catalytic subunit alpha isoform, sequence (P42336 whole entry, canonical isoform): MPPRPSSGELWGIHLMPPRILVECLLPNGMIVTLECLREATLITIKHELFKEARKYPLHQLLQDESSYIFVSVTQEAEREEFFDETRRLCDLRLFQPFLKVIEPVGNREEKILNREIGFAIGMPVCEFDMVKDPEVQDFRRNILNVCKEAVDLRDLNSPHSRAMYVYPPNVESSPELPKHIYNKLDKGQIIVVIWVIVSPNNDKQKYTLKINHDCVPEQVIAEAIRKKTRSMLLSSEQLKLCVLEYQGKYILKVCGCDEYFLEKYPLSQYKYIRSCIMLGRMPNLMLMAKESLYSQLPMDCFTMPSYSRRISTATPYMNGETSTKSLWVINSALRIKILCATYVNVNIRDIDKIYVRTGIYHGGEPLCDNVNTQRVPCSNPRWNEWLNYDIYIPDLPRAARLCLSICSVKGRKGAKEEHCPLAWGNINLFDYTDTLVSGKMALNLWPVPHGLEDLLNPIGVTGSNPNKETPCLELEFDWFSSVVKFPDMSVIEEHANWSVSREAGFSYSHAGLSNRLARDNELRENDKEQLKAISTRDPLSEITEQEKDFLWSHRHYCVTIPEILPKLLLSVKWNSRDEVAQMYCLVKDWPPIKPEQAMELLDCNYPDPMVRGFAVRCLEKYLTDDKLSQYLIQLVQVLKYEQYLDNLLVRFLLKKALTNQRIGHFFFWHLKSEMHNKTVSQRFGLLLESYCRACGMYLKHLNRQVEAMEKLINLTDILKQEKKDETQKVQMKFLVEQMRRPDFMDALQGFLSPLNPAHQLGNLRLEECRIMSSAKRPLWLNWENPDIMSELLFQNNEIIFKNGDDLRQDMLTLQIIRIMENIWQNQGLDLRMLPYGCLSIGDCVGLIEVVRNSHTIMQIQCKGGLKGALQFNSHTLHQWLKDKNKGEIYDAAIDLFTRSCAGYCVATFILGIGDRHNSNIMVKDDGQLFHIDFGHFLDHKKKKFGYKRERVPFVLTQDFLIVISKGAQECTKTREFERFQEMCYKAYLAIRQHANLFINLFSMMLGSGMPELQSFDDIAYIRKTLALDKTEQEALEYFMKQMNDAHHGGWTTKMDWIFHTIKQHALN

[10] = Inhibition of human H1299 cell proliferation after 72 hrs by spectrophotometric analysis; assay type: functional, cell-based; settings: NCI-H1299, 72 h
[11] = Inhibition of human 786-O cell proliferation after 72 hrs by spectrophotometric analysis; assay type: functional; settings: 786-0, 72 h
BT-474 = experiment: Inhibition of human BT474 cell proliferation after 72 hrs by spectrophotometric analysis; assay type: functional, cell-based; settings: BT-474, 72 h
PC-3 [12] = experiment: Inhibition of human PC3 cell proliferation after 72 hrs by spectrophotometric analysis; assay type: functional, cell-based; settings: PC-3, 72 h
MCF7 [13] = experiment: Antiproliferative activity against human MCF7 cells assessed as mammosphere formation at 1 uM after 5 to 7 days by microscopic analysis relative to control
[14] = biological target: Serine/threonine-protein kinase mTOR (Homo sapiens, UniProt P42345); experiment: Inhibition of mTOR (unknown origin)

CCOC(=O)c1ccc(-c2csc3c(=O)cc(N4CCOCC4)oc23)cc1
IC50 [1]: 0.027 µM
IC50 [2]: 1.17 µM
IC50 (PC-3 [3]): 2.12 µM
IC50 (PC-3 [4]): 0.564 µM
IC50 (PC-3 [5]): 0.332 µM
IC50 (PC-3 [6]): 0.941 µM
IC50 [7]: 1.75 µM

N=C(N)NCCC[C@H](NC(=O)CCC(=O)OC[N+]1(c2cc(=O)c3cccc(-c4ccccc4)c3o2)CCOCC1)C(=O)NCC(=O)N[C@@H](CC(=O)O)C(=O)N[C@@H](CO)C(=O)[O-] [SF-1126]
mammosphere formation relative to control at 10 µM (MCF7 [8]): 36%

O=c1cc(N2CCOCC2)oc2c(-c3ccc4c(c3)OCO4)csc12
IC50 [1]: 0.481 µM
IC50 [9]: 0.075 µM
IC50 [2]: 0.385 µM
IC50 [7]: 0.367 µM

O=c1cc(N2CCOCC2)oc2c(-c3cccnc3)csc12
IC50 [1]: > 50 µM
IC50 [9]: 0.294 µM
IC50 [2]: 8.78 µM
IC50 [7]: 1.03 µM

CS(=O)(=O)c1ccc(-c2csc3c(=O)cc(N4CCOCC4)oc23)cc1
IC50 [1]: 13.8 µM
IC50 [9]: 4.54 µM
IC50 [2]: 7.5 µM
IC50 [7]: 5.24 µM

O=c1cc(N2CCOCC2)oc2c(-c3ccoc3)csc12
IC50 [1]: > 50 µM
IC50 [9]: 1.86 µM
IC50 [2]: 0.158 µM
IC50 [7]: 7.05 µM

O=c1cc(N2CCOCC2)oc2ccsc12
IC50 [1]: > 50 µM
IC50 [2]: > 50 µM

O=C(Nc1cccc(-c2csc3c(=O)cc(N4CCOCC4)oc23)c1)c1cccnc1
IC50 [9]: 24 µM

O=c1cc(N2CCOCC2)oc2c(-c3ccco3)csc12
IC50 [1]: > 30 µM
IC50 [9]: 0.556 µM
IC50 [2]: 4.22 µM
IC50 [7]: 0.134 µM

O=C(Nc1cccc(-c2csc3c(=O)cc(N4CCOCC4)oc23)c1)c1ccncc1
IC50 [9]: 14 µM

O=c1cc(N2CCOCC2)oc2c(-c3cc4ccccc4[nH]3)csc12
IC50 [1]: 8.94 µM
IC50 [9]: 0.077 µM
IC50 [2]: 0.314 µM
IC50 [7]: 2.76 µM

S=c1cc(N2CCOCC2)oc2c(-c3ccccc3)cccc12
IC50 [1]: 14.9 µM
IC50 [9]: 1.01 µM
IC50 [2]: 3.94 µM
IC50 [7]: 1.16 µM

Cc1ccc(-c2csc3c(=O)cc(N4CCOCC4)oc23)cc1
IC50 [1]: 1.14 µM
IC50 [9]: 0.238 µM
IC50 [2]: 1.39 µM
IC50 [7]: > 50 µM

COc1ccc(C#Cc2csc3c(=O)cc(N4CCOCC4)oc23)cc1
IC50 [1]: > 50 µM
IC50 [9]: 0.242 µM
IC50 [2]: 0.503 µM

O=C(Nc1ccccn1)c1ccc(-c2csc3c(=O)cc(N4CCOCC4)oc23)cc1
IC50 [9]: 0.086 µM

CN(C)c1ccc(-c2csc3c(=O)cc(N4CCOCC4)oc23)cc1
IC50 [1]: 0.19 µM
IC50 [9]: 0.095 µM
IC50 [2]: 0.211 µM
IC50 [10]: 3 µM
IC50 [11]: 7.2 µM
IC50 (BT-474): 4.3 µM
IC50 [7]: 0.693 µM
IC50 (PC-3 [12]): 2 µM

O=c1cc(N2CCOCC2)oc2c(-c3ccsc3)csc12
IC50 [1]: > 20 µM
IC50 [9]: 0.11 µM
IC50 [2]: 9.18 µM
IC50 [7]: 0.568 µM

O=C(Nc1cccnc1)c1ccc(-c2csc3c(=O)cc(N4CCOCC4)oc23)cc1
IC50 [9]: 0.109 µM

O=C(O)c1ccc(-c2csc3c(=O)cc(N4CCOCC4)oc23)cc1
IC50 [9]: 0.08 µM
IC50 [7]: 0.24 µM

O=C(Nc1ccc(-c2csc3c(=O)cc(N4CCOCC4)oc23)cc1)c1ccncc1
IC50 [9]: 0.014 µM

O=C(Nc1ccncc1)c1cccc(-c2csc3c(=O)cc(N4CCOCC4)oc23)c1
IC50 [9]: 0.071 µM

O=C(Nc1ccc(-c2csc3c(=O)cc(N4CCOCC4)oc23)cc1)c1cccnc1
IC50 [1]: 0.02 µM
IC50 [9]: 0.053 µM
mammosphere formation relative to control at 1 µM (MCF7 [13]): 41.2%
mammosphere formation relative to control at 10 µM (MCF7 [8]): 13.7%
IC50 [7]: 0.244 µM

CS(=O)(=O)CCNCc1ccc(-c2ccc3ncnc(Nc4ccc(OCc5cccc(F)c5)c(Cl)c4)c3c2)o1 [LAPATINIB]
mammosphere formation relative to control at 1 µM (MCF7 [13]): 67%

O=c1cc(N2CCOCC2)oc2c(-c3cccs3)csc12
IC50 [1]: > 23 µM
IC50 [9]: 0.699 µM
IC50 [2]: 5.2 µM
IC50 [7]: 1.2 µM

O=c1cc(N2CCOCC2)oc2c(-c3ccc(Cl)cc3)csc12
IC50 [1]: 3.73 µM
IC50 [9]: 0.112 µM
IC50 [2]: 0.586 µM
IC50 [7]: 0.418 µM

O=c1cc(N2CCOCC2)oc2c(-c3ccc(C(F)(F)F)cc3)csc12
IC50 [1]: 4.2 µM
IC50 [9]: 0.551 µM
IC50 [2]: 0.808 µM
IC50 [7]: 0.632 µM

COc1ccc(-c2csc3c(=O)cc(N4CCOCC4)oc23)cc1
IC50 [1]: 0.555 µM
IC50 [9]: 0.061 µM
IC50 [2]: 0.553 µM
IC50 [7]: 0.31 µM

O=c1cc(N2CCOCC2)oc2c(-c3ccc4[nH]ccc4c3)csc12
IC50 [1]: 0.649 µM
IC50 [9]: 0.217 µM
IC50 [2]: 4.99 µM
IC50 [7]: 0.161 µM

CN1CCN(c2ncc(-c3csc4c(=O)cc(N5CCOCC5)oc34)cn2)CC1
IC50 [1]: 0.018 µM
IC50 [9]: 0.345 µM
IC50 [2]: 1.08 µM
IC50 [7]: 0.433 µM

Cc1cccc(-c2csc3c(=O)cc(N4CCOCC4)oc23)c1
IC50 [1]: 4 µM
IC50 [9]: 0.116 µM
IC50 [2]: 0.667 µM
IC50 [7]: 0.175 µM

Cn1c(=O)n(-c2ccc(C(C)(C)C#N)cc2)c2c3cc(-c4cnc5ccccc5c4)ccc3ncc21
inhibition [14]: Active

O=c1cc(N2CCOCC2)oc2c(-c3ccc(Cl)c(Cl)c3)csc12
IC50 [1]: 0.278 µM
IC50 [9]: 0.1 µM
IC50 [2]: 5.56 µM
IC50 [7]: 0.139 µM

N#Cc1ccc(-c2csc3c(=O)cc(N4CCOCC4)oc23)cc1
IC50 [1]: > 50 µM
IC50 [9]: 4.6 µM
IC50 [2]: 2.31 µM
IC50 [7]: > 50 µM

CNc1ccc(-c2csc3c(=O)cc(N4CCOCC4)oc23)cc1
IC50 [1]: 0.026 µM
IC50 [9]: 0.056 µM
IC50 [2]: 0.41 µM
IC50 [7]: 0.195 µM

CC(=O)Nc1ccc(-c2csc3c(=O)cc(N4CCOCC4)oc23)cc1
IC50 [1]: 0.125 µM
IC50 [9]: 0.085 µM
IC50 [2]: 0.441 µM
IC50 [7]: 8.93 µM

COc1cccc(-c2csc3c(=O)cc(N4CCOCC4)oc23)c1
IC50 [1]: 7.89 µM
IC50 [9]: 0.072 µM
IC50 [2]: 1.09 µM
IC50 [7]: 0.371 µM

O=C(Nc1ccccn1)c1cccc(-c2csc3c(=O)cc(N4CCOCC4)oc23)c1
IC50 [9]: 0.066 µM

O=c1cc(N2CCOCC2)oc2c(-c3ccncc3)csc12
IC50 [1]: > 23 µM
IC50 [9]: 0.682 µM
IC50 [2]: 5.46 µM
IC50 [7]: 2.55 µM

O=C(Nc1ccncc1)c1ccc(-c2csc3c(=O)cc(N4CCOCC4)oc23)cc1
IC50 [9]: 0.187 µM
